Test system: 598228-144-R-J1-PDC complex spheroids, viability
Test: Anticancer human tumor 598228-144-R-J1-PDC patient-derived serous endometrial adenocarcinoma cell line growth inhibition [CLK]
Settings: for IC50: curve of first compound; for viability, T/C: stronger effect = lower value
How it was run: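 Patient-derived tumor cells grown as complex spheroids with HUVEC endothelial cells and mesenchymal stem cells, treated with drug combinations. Concentrations descend in half-log steps from near clinical Cmax, or from 10 microM if Cmax unknown.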

[1] = second compound 0.0316 µM, first compound 0.0316 µM
[2] = second compound 0.0316 µM, first compound 0.1 µM
[3] = second compound 0.0316 µM, first compound 0.316 µM
[4] = second compound 0.0316 µM, first compound 1 µM
[5] = second compound 0.1 µM, first compound 0.0316 µM
[6] = second compound 0.1 µM, first compound 0.1 µM
[7] = second compound 0.1 µM, first compound 0.316 µM
[8] = second compound 0.1 µM, first compound 1 µM
[9] = second compound 0.316 µM, first compound 0.0316 µM
[10] = second compound 0.316 µM, first compound 0.1 µM
[11] = second compound 0.316 µM, first compound 0.316 µM
[12] = second compound 0.316 µM, first compound 1 µM
[13] = second compound 1 µM, first compound 0.0316 µM
[14] = second compound 1 µM, first compound 0.1 µM
[15] = second compound 1 µM, first compound 0.316 µM
[16] = second compound 1 µM, first compound 1 µM
[17] = second compound 3.16 µM, first compound 0.0316 µM
[18] = second compound 3.16 µM, first compound 0.1 µM
[19] = second compound 3.16 µM, first compound 0.316 µM
[20] = second compound 3.16 µM, first compound 1 µM
[21] = second compound 10 µM, first compound 0.0316 µM
[22] = second compound 10 µM, first compound 0.1 µM
[23] = second compound 10 µM, first compound 0.316 µM
[24] = second compound 10 µM, first compound 1 µM
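Also: spheroids exposed to compounds for seven days before readout.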
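For viability, T/C in this document: 100% = DMSO vehicle control wells.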

Molecule NC(=O)C(=Cn1cnc(-c2cc(C(F)(F)F)cc(C(F)(F)F)c2)n1)c1cncnc1 + CNC(=O)c1ccc(Nc2nc(OC3CCCC3)c3c(-c4ccc5nc(C)oc5c4)c[nH]c3n2)c(OC)c1 has an IC50 (second compound 0.0316 µM) of 362 nM, an IC50 (second compound 0.1 µM) of 525 nM and an IC50 (second compound 0.316 µM) of 644 nM. For the same molecule, the IC50 (second compound 1 µM) was 467 nM, the IC50 (second compound 3.16 µM) was 301 nM and the IC50 (second compound 10 µM) was 160 nM. The viability, T/C (second compound 0.0316 µM, first compound 0.00949 µM) was 110%, the viability, T/C (second compound 0.0316 µM, first compound 0.03 µM) was 97.5% and the viability, T/C (second compound 0.0316 µM, first compound 0.0949 µM) was 93.9%. It also gave a viability, T/C (second compound 0.0316 µM, first compound 0.3 µM) of 53.3%, a viability, T/C (second compound 0.0316 µM, first compound 0.949 µM) of 30.1% and a viability, T/C (second compound 0.0316 µM, first compound 3 µM) of 25.7%. The viability, T/C (second compound 0.1 µM, first compound 0.00949 µM) was 101%, the viability, T/C (second compound 0.1 µM, first compound 0.03 µM) was 99.8% and the viability, T/C (second compound 0.1 µM, first compound 0.0949 µM) was 97.9%. It also gave a viability, T/C (second compound 0.1 µM, first compound 0.3 µM) of 63.8%, a viability, T/C (second compound 0.1 µM, first compound 0.949 µM) of 36.4% and a viability, T/C (second compound 0.1 µM, first compound 3 µM) of 28.7%. It also gave a viability, T/C (second compound 0.316 µM, first compound 0.00949 µM) of 88.1%, a viability, T/C (second compound 0.316 µM, first compound 0.03 µM) of 95.9% and a viability, T/C (second compound 0.316 µM, first compound 0.0949 µM) of 82.3%. The viability, T/C (second compound 0.316 µM, first compound 0.3 µM) was 64%, the viability, T/C (second compound 0.316 µM, first compound 0.949 µM) was 43.5% and the viability, T/C (second compound 0.316 µM, first compound 3 µM) was 18.2%. It also gave a viability, T/C (second compound 1 µM, first compound 0.00949 µM) of 97.5%, a viability, T/C (second compound 1 µM, first compound 0.03 µM) of 97.3% and a viability, T/C (second compound 1 µM, first compound 0.0949 µM) of 85%. The viability, T/C (second compound 1 µM, first compound 0.3 µM) was 55.4%, the viability, T/C (second compound 1 µM, first compound 0.949 µM) was 37.1% and the viability, T/C (second compound 1 µM, first compound 3 µM) was 10.4%. For the same molecule, the viability, T/C (second compound 3.16 µM, first compound 0.00949 µM) was 96.8%, the viability, T/C (second compound 3.16 µM, first compound 0.03 µM) was 73.6% and the viability, T/C (second compound 3.16 µM, first compound 0.0949 µM) was 68.2%. The viability, T/C (second compound 3.16 µM, first compound 0.3 µM) was 54.3%, the viability, T/C (second compound 3.16 µM, first compound 0.949 µM) was 30% and the viability, T/C (second compound 3.16 µM, first compound 3 µM) was 10.9%. The viability, T/C (second compound 10 µM, first compound 0.00949 µM) was 88.1%, the viability, T/C (second compound 10 µM, first compound 0.03 µM) was 72.3% and the viability, T/C (second compound 10 µM, first compound 0.0949 µM) was 58.7%. The viability, T/C (second compound 10 µM, first compound 0.3 µM) was 42%, the viability, T/C (second compound 10 µM, first compound 0.949 µM) was 19.6% and the viability, T/C (second compound 10 µM, first compound 3 µM) was 4.93%.
COc1c(OCCCN2CCOCC2)ccc2c3n(c(=NC(=O)c4cnc(N)nc4)nc12)CCN3 + CN1CCN(c2cc(C(=O)Nc3cc4cc(-c5cnn(C)c5)ccc4cn3)ccn2)CC1 gave an IC50 (second compound 0.0316 µM) of 30.9 nM, an IC50 (second compound 0.1 µM) of 19.5 nM and an IC50 (second compound 0.316 µM) of under 3.16 nM. For the same molecule, the IC50 (second compound 1 µM) was under 3.16 nM, the IC50 (second compound 3.16 µM) was under 3.16 nM and the IC50 (second compound 10 µM) was under 3.16 nM. For the same molecule, the viability, T/C (second compound 0.0316 µM, first compound 0.00316 µM) was 98.2%, the viability, T/C (second compound 0.0316 µM, first compound 0.01 µM) was 75.7% and the viability, T/C [1] was 46.8%. It also gave a viability, T/C [2] of 31.9%, a viability, T/C [3] of 15.7% and a viability, T/C [4] of 8.56%. The viability, T/C (second compound 0.1 µM, first compound 0.00316 µM) was 85.5%, the viability, T/C (second compound 0.1 µM, first compound 0.01 µM) was 66.5% and the viability, T/C [5] was 36.7%. It also gave a viability, T/C [6] of 23.5%, a viability, T/C [7] of 9.69% and a viability, T/C [8] of 10.4%. The viability, T/C (second compound 0.316 µM, first compound 0.00316 µM) was 10.5%, the viability, T/C (second compound 0.316 µM, first compound 0.01 µM) was 8.73% and the viability, T/C [9] was 5.42%. It also gave a viability, T/C [10] of 2.85%, a viability, T/C [11] of 2.66% and a viability, T/C [12] of 2.22%. For the same molecule, the viability, T/C (second compound 1 µM, first compound 0.00316 µM) was 1.16%, the viability, T/C (second compound 1 µM, first compound 0.01 µM) was 0.94% and the viability, T/C [13] was 0.73%. It also gave a viability, T/C [14] of 0.29%, a viability, T/C [15] of 1.53% and a viability, T/C [16] of 3.1%. For the same molecule, the viability, T/C (second compound 3.16 µM, first compound 0.00316 µM) was 0.95%, the viability, T/C (second compound 3.16 µM, first compound 0.01 µM) was 2.7% and the viability, T/C [17] was 0.9%. For the same molecule, the viability, T/C [18] was 0.57%, the viability, T/C [19] was 1.8% and the viability, T/C [20] was 4.26%. For the same molecule, the viability, T/C (second compound 10 µM, first compound 0.00316 µM) was 0.66%, the viability, T/C (second compound 10 µM, first compound 0.01 µM) was 2.16% and the viability, T/C [21] was 2.49%. The viability, T/C [22] was 0.4%, the viability, T/C [23] was 0.59% and the viability, T/C [24] was 3.39%.
COc1cccc2c1C(=O)c1c(O)c3c(c(O)c1C2=O)CC(O)(C(=O)CO)CC3OC1CC(N)C(O)C(C)O1 (stereo unspecified) + CN1CCN(c2cc(C(=O)Nc3cc4cc(-c5cnn(C)c5)ccc4cn3)ccn2)CC1 was tested, and the IC50 (second compound 0.0316 µM) was 263 nM, the IC50 (second compound 0.1 µM) was 224 nM and the IC50 (second compound 0.316 µM) was under 31.6 nM. The IC50 (second compound 1 µM) was under 31.6 nM, the IC50 (second compound 3.16 µM) was under 31.6 nM and the IC50 (second compound 10 µM) was under 31.6 nM. The viability, T/C [1] was 114%, the viability, T/C [2] was 116% and the viability, T/C [3] was 37.5%. For the same molecule, the viability, T/C [4] was 7.36%, the viability, T/C (second compound 0.0316 µM, first compound 3.16 µM) was 0.34% and the viability, T/C (second compound 0.0316 µM, first compound 10 µM) was 0.49%. For the same molecule, the viability, T/C [5] was 150%, the viability, T/C [6] was 109% and the viability, T/C [7] was 24.6%. The viability, T/C [8] was 3.45%, the viability, T/C (second compound 0.1 µM, first compound 3.16 µM) was 0.34% and the viability, T/C (second compound 0.1 µM, first compound 10 µM) was 1.62%. The viability, T/C [9] was 14.6%, the viability, T/C [10] was 14.6% and the viability, T/C [11] was 3.54%. It also gave a viability, T/C [12] of 0.66%, a viability, T/C (second compound 0.316 µM, first compound 3.16 µM) of 0.34% and a viability, T/C (second compound 0.316 µM, first compound 10 µM) of 2.75%. The viability, T/C [13] was 1.14%, the viability, T/C [14] was 0.59% and the viability, T/C [15] was 1%. It also gave a viability, T/C [16] of 0.68%, a viability, T/C (second compound 1 µM, first compound 3.16 µM) of 0.96% and a viability, T/C (second compound 1 µM, first compound 10 µM) of 2.88%. It also gave a viability, T/C [17] of 1.47%, a viability, T/C [18] of 3.06% and a viability, T/C [19] of 0.97%. The viability, T/C [20] was 0.79%, the viability, T/C (second compound 3.16 µM, first compound 3.16 µM) was 1.31% and the viability, T/C (second compound 3.16 µM, first compound 10 µM) was 4.32%. For the same molecule, the viability, T/C [21] was 0.73%, the viability, T/C [22] was 0.59% and the viability, T/C [23] was 3.86%. For the same molecule, the viability, T/C [24] was 0.35%, the viability, T/C (second compound 10 µM, first compound 3.16 µM) was 0.23% and the viability, T/C (second compound 10 µM, first compound 10 µM) was 3.87%.
